This is an account of results in ChEMBL document CHEMBL1144345, “Discovery of cell-permeable non-peptide inhibitors of beta-secretase by high-throughput docking and continuum electrostatics calculations” (J Med Chem, 2005).

Experiment [1] is described as follows: Cytotoxic concentration against human and other tumor cell lines. It is filed as functional.
Experiment [2] is described as follows: Effective concentration against Abeta(sw) peptide. The format is functional.
The target of another experiment is Beta-secretase (BACE) (Homo sapiens, UniProt Q9Y5Z0+P56817). The experiment in a line: Beta-secretase inhibitory activity as inhibition of secreted alkaline phosphatase in HEK293 cells expressing SEAP-APP fusion protein. The format is functional, cell-based.

The CC50 is the concentration at which the toxic effect on the cells reaches its halfway point. Read a low CC50 as harm at low concentration. For orientation: EC50 means the concentration that produces a half-maximal response. High values mean a need for much substance, low ones an effect from little substance. `CCSc1nsc(NC(=O)Nc2cccc(C(C)=O)c2)n1` returned a CC50 in experiment [1] of 23.3 µM. The compound also returned an EC50 in experiment [2] of 2.6 µM.
For `CCOCCCNC(=O)c1cc(NC(=O)Nc2cccc(Cl)c2)ccc1N(C)C`, in that order: 11.1 µM and 2.6 µM.
With `COCCCNC(=O)c1cc(NC(=O)Nc2cc(C(F)(F)F)cc(C(F)(F)F)c2)ccc1N(C)C`, half-maximal cytotoxicity in experiment [1] (CC50) was put at 24.6 µM. Also, the concentration for a half-maximal effect (EC50) in experiment [2] amounted to 3.2 µM; at Beta-secretase (BACE) it was 27 µM.
Take `CN(C)c1ccc(NC(=O)Nc2cc(C(F)(F)F)cc(C(F)(F)F)c2)cc1C(=O)NCCCN1CCOCC1`: the CC50 in experiment [1] is 12.5 µM. Moreover, the response in experiment [2] was half-maximal at 3 µM (EC50).
